Experimental data taken from patent US20250361214A1, “TRIAZINE LIPIDS, LIPID SYNTHESIS, AND METHODS FOR INHIBITING CANONICAL NFKB TRANSCRIPTIONAL ACTIVITY” (University of Kentucky Research Foundation, priority 2022, published 2025).
“Also recorded” adds a separate entry of the source.

Experiments:
[1] = Differential scanning calorimetry, transition temperature (Tm) of lipids; format: physicochemical; conditions: liposomes of pure lipid, 10 mM in 20 mM HEPES, DSC
Protocol: Differential Scanning calorimetery. The transition temperature (Tm) of the lipids was determined using a multicell differential scanning calorimeter (TA Instruments). Liposomes were made with triazine lipids at a concentration of 10 mM in 20 mM HEPES buffer. These were heated to 60° C. and sonicated until the solution was translucent. For Tm determination, 250 μL of the liposome solution was transferred into reusable hastelloy ampoules while 250 μL of the HEPES solution was transferred to the third ampoule, leaving the reference ampoule empty. […] Data was collected over a range of 10-110° C. at a rate of 2° C. min-1 in a heat-cool-heat cycle. After the run was complete, the CpCalc 2.1 software package was used to convert the raw data into a molar heat capacity and the data from the second heating cycle were processed using Microsoft Excel.

[2] = Nanoparticle pKa via TNS fluorescence; format: physicochemical; conditions: liposomes of the cationic lipid in buffer, probe 2-(p-toluidino)-6-napthalene sulfonic acid (TNS), 1 µM final, pH 2.5 to 12, read-out: pKa
Protocol: Determination of Nanoparticle pKa via TNS Fluorescence. […] The solutions were mixed by pipetting and incubated at room temperature for 10 minutes, before being analysed for fluorescence intensity using a 321 nm excitation and 445 nm emission wavelengths.

HeLa cells = experiment: Transfection of luciferase plasmid; format: cell-based; conditions: TZ lipid:DOPE 1:1, compared with naked plasmid
Protocol: Transfection of Luciferase Plasmid and Cell Viability. HeLa cells cultured in EMEM (ATCC) supplemented with 10% fetal bovine serum were transferred to a 96 well plate, in quadruplicate, at a density of 20,000 cells per well and incubated for 24 hours at 37° C. in 5% CO2. Liposomes made with a 1:1 ratio of DOPE and TZ lipid were added to 200 ng pGL3 Luciferase Reporter Vector (Promega) at N:P ratios of 2.5, 5 and 10, and incubated at 37° C. for 10 minutes before being diluted in 100 μL of nonsupplemented EMEM and added to the cells. Following a four hour incubation at 37° C., the media was changed, and the cells were incubated for another twenty hours, at which point the cells were lysed with a cell culture lysis reagent at pH 7.8 composed of 25 mM Tris-phosphate buffer, 0.7 g L^−1 1,2-diaminocyclohexane, 10% glycerol, 1% Triton X-100, and 1% protease inhibitor cocktail (Millipore). Total protein content was determined with a bicinchoninic acid assay (G-Biosciences) and luciferase protein expression was quantified by a luciferase assay (Promega). Cell viability was assessed using a Cell Titer Blue assay kit (Promega) based on the manufacturer's instructions. In each of the three independent experiments performed, transfection was compared with cells treated with Lipofectamine 3000 (Thermo), following the manufacturer's instructions, and with DNA treated cells.

[3] = Characterization of nanoparticles (size, zeta potential, DNA encapsulation), Example 2; format: physicochemical; conditions: LNPs made with the cationic lipid
Protocol: The concentration of DNA in LNPs after dialysis was quantified using an AccuClear® Ultra High Sensitivity dsDNA Quantification Kit (Biotium #31027) and quantified on a BioTek Synergy H1 plate reader. Encapsulation efficiencies were determined by comparing the amount of DNA in the LNP solution vs. the DNA solution used to make them, after disrupting the LNPs with 0.5% Cl2E10 (Abcam #ab146563) and adjusting for volume differences (i.e.: excess volume added during dialysis and dilution volume during ethanol mixture).

BALB/c mice [4] = experiment: In vivo hAAT transfection efficiency, serum ELISA and ALT; parameters: species or system mouse
Protocol: To assess in vivo hAAT transfection efficiency, mice were administered 200 μL nanoparticles or PBS vehicle i.p. at the doses indicated in the figure legend. Seventy-two hours after injection the mice were bled again for assessment of ALT levels and hAAT expression. hAAT levels were determined via ELISA using serum diluted 1:1 in PBS containing 0.05% casein (PBS-C; 124250; Beantown Chemical), as described previously.^38

BALB/c mice [5] = experiment: Anti-hAAT antibody titers and IgG subclass ratios; format: in vivo, mouse
Protocol: To assess the presence of antibodies toward hAAT, 50 μL of hAAT (OriGene #RG202082) was plated at 2 μg/mL in carbonate buffer, pH 9.7, on a 96 well high binding plate (Greiner #82050-720) and incubated overnight at 4° C. The next day, the plates were washed with PBS containing 0.1% Tween-20 (PBS-T) and blocked for 1 hour with PBS-C at 37° C. After blocking, serum samples were plated at dilutions ranging from 1:100 to 1:1,000,000 and incubated at 37° C. for 2 hours. Secondary antibody (goat anti-mouse IgG HRP; Invitrogen #16066) diluted 1:2000 was applied for 30 min at 37° C., followed by a 30 min. incubation with tetramethylbenzidine (Rockland). Absorbance at 450 nm was recorded using a BioTek Synergy H1 microplate reader. Reciprocal endpoint titers were determined by plotting A450 values versus known dilutions, calculating the slope of that line, and dividing the slope by two times the average of the blank (no serum) wells.
Anti-hAAT IgG subclass ratios were assessed as described above, using a single 1:100 sample dilution and the following detection antibodies: goat anti-mouse IgG1-HRP (Abcam ab98693) at 1:10,000, IgG2a-HRP (Abcam ab98698) at 1:5000, IgG2b-HRP (Abcam ab98703) at 1:10,000 and IgG3 (Jackson 115-035-209) at 1:5000. Subclass ratios were calculated by dividing the absorbance of each subclass by that of IgG1 for each individual mouse.

canonical NFKB = experiment: THP-1-Blue NFKB reporter (SEAP) assay; format: cell-based, human
J774 murine macrophages = experiment: CD80 expression on macrophages treated with lipid; format: cell-based; conditions: 16 hours
Excerpt: Increased expression of CD80 after TZ3 treatment aligns with data observed for DOTAP,^109 and supports the hypothesis that cationic lipids activate the non-canonical NFKB pathway leading to enhanced antigen presentation and co-stimulatory molecule expression.

C57BL/6J mice = experiment: In vivo toxicity of cationic lipid nanoparticles (ALT, IL-6, SCr, mortality)
[6] = 20 mM lipid, i.p., versus baseline

CCCCCCCCCCCCN(CCCCCCCCCCCC)c1nc(NCCCN)nc(NCCCN)n1 [Lipid 3]
Tm [1]: < 10 °C
pKa [2]: 7.37
plasmid transfection (luciferase) (HeLa cells): better efficacy than the lipids with C18 tails
encapsulation of DNA (general) [3]: 60-70%
hAAT levels at 4 weeks (BALB/c mice [4]; LP transfection, 4 weeks after treatment): persisted at 4 weeks after treatment
average hAAT levels in serum (BALB/c mice [4]; LPs (50% cationic lipid, 50% DOPE), 10,000 ng hAAT plasmid DNA i.p., 72 hours): 9.5 ng/mL
increase in anti-hAAT titers versus the two control lipids (BALB/c mice [5]; 25 μg hAAT protein concurrent with 1 mM lipid, day 14): 1000 fold
increase in antibody titer toward a model antigen (BALB/c mice [5]; absence of additional adjuvants (FIG. 60)): greater than 3 orders of magnitude
ratios of IgG2a, 2b and 3 to IgG1 (BALB/c mice [5]; hAAT protein delivered with lipids): more balanced IgG2a/IgG1 ratio than DOTAP and DMPC
antibody response relative to DOTAP (BALB/c mice [5]; hAAT protein delivery): two orders of magnitude greater than DOTAP
RET (anti-hAAT) (BALB/c mice [5]; lipid used to deliver the hAAT protein): > 100,000
anti-hAAT IgG titers (BALB/c mice [5]; transgene delivery, 10 μg hAAT DNA, day 14, versus untreated mice): significantly higher anti-hAAT titers than untreated mice
Th1/Th2 response (ratios of IgG2a, 2b, and 3 over IgG1) (BALB/c mice [5]; transgenic hAAT delivery with LPs): balanced Th1/Th2 response
IC50 (canonical NFKB; Homo sapiens, THP-1-Blue cells stimulated with TNFα, 24 h lipid treatment, read-out: IC50, canonical NFKB inhibition): 4 µM
IC80 (canonical NFKB; Homo sapiens, canonical NFKB inhibition): 10 µM
canonical NFKB inhibition (canonical NFKB; THP-1-Blue cells stimulated with TNFα, listed as TZ3): dose dependent, but not affected by duration of exposure; also recorded: dose dependent inhibition of the canonical NFKB pathway
CD80 expression (J774 murine macrophages; MFI relative to untreated cells, listed as TZ3): does-dependent increase in mean fluorescence intensity (MFI) of CD80; also recorded: dose-dependent increase in expression of the co-stimulatory molecule, CD80
cell viability (ZombieDye live/dead stain) (J774 murine macrophages; across lipid concentrations): cells are viable across lipid concentrations
interleukin 6 (IL-6) (C57BL/6J mice; [6]): trended upward
serum alanine aminotransferase (ALT) (C57BL/6J mice; [6]): trended upward
in vivo toxicity (overall) (C57BL/6J mice; 100 μL cationic lipid nanoparticles i.p., listed as TZ3): comparable toxicity to DOTAP; also recorded: does not induce significant in vivo toxicity
